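Method: 48-hour compound exposure of cells in 96-well plates, five concentrations, linear interpolation of endpoints. Abbreviation: GI50, concentration required for 50% inhibition of growth. The concentration for full growth arrest is given as TGI.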

Common to all, as to test: NCI tumour cell line growth inhibition, 48 h
Assay [1] deals with 786-0 renal.
Assay [2] deals with ACHN renal.
The subject of assay [3] is HOP-62 NSCLC.
Assay [4] concerns LOX IMVI melanoma.
The test system of assay [5] is NCI/ADR-RES ovarian.
The subject of assay [6] is RPMI-8226 leukemia.
Assay [7] deals with SF-268 CNS.
The subject of assay [8] is SF-295 CNS.
Assay [9] relates to SK-MEL-28 melanoma.
For assay [10], the system named is TK-10 renal.

Turning to `CCN(CC)C(=S)SSC1CCCCC1`, the GI50 was 19.6 µM in [1]; 16.6 µM in [2]; 26.8 µM in assay [3]; 8.6 µM in [4]; 21.3 µM in [5]; 9.99 µM in assay [6]. Moreover, the GI50 in [7] is 23.1 µM; in assay [8], 17.6 µM; in assay [9], 19.9 µM; in assay [10], 18 µM. For the same compound, the TGI in assay [1] stood at 35 µM; in [2], 32 µM; in assay [3], 77.9 µM; in [4], 24.3 µM; in assay [5] it was 47 µM; in [6], 31.4 µM. Also, the TGI is 60.9 µM in [7], 44.6 µM in assay [8], 42.2 µM in assay [9] and 34.6 µM in [10].
In the case of `Cc1ccc(-c2cc3nc(-c4ccccc4)nc(C(Cl)Cl)n3n2)cc1`, the GI50 in [1] is 1.06 µM; in assay [2] it was 0.737 µM; in [3], 0.666 µM; in assay [4], greater than 50 µM; in assay [5], 0.789 µM; in [6] it was 0.802 µM. Moreover, the GI50 is 1.11 µM in [7], 0.955 µM in assay [8], 1.54 µM in [9] and 0.944 µM in assay [10]. The TGI in assay [1] is 2.37 µM; in assay [2] it was 1.41 µM; in assay [3], 2.11 µM; in assay [4] it was greater than 50 µM; in [5] it was 2.42 µM; in [6], 3.45 µM. Further, the TGI in [7] worked out at 3.53 µM; in [8], 1.95 µM; in assay [9], 5.32 µM; in assay [10], 1.8 µM.
`C=C1C(=O)O[C@H]2[C@H]1CC/C(COC(=O)c1ccc(C(=O)O)s1)=C\CC[C@@]1(C)O[C@@H]21`: the GI50 in assay [1] is 1.54 µM; in [2], 1.63 µM; in assay [3] it was 6.96 µM; in assay [4] it was 1.49 µM; in assay [5] it was 3.4 µM; in assay [6], 1.97 µM. The GI50 in assay [7] is 2.08 µM; in [8], 5.65 µM; in [9], 2.1 µM; in assay [10], 1.64 µM. In addition, the TGI in [1] was 3.09 µM; in assay [2], 3.02 µM; in assay [3], 20.2 µM; in assay [4] it was 3.08 µM; in assay [5], 26.2 µM; in [6] it was 5.98 µM. Further, the TGI in [7] turned out to be 4.69 µM; in [8], 18.7 µM; in assay [9], 4.83 µM; in [10] it was 3.44 µM.
As to `O=C1/C(=C\c2cccs2)Oc2ccccc21`, the TGI in assay [1], in assay [2], in assay [3], in assay [4], in assay [5] and in assay [6] was greater than 100 µM each time. In addition, the TGI in assay [7], in [8], in assay [9] and in assay [10] was greater than 100 µM each time.
As for `Cc1ccc2c(c1)sc(-c1ccc(N(C)C)cc1)[n+]2C`, the GI50 in assay [1] is 3.69 µM; in [2] it was 5.89 µM; in [3] it was 3.66 µM; in assay [4], 1.28 µM; in assay [5], greater than 95.8 µM; in assay [6], 0.13 µM. Besides, the GI50 in assay [7] was 2.44 µM; in assay [8], 0.72 µM; in assay [9] it was 3.3 µM; in assay [10], 1.99 µM. For the same compound, the TGI in assay [1] was greater than 45.9 µM; in assay [2], greater than 100 µM; in [3] it was greater than 41.4 µM; in assay [4], 21.8 µM; in assay [5], greater than 100 µM; in assay [6], 5.15 µM. Moreover, the TGI is 24.9 µM in assay [7], greater than 22.8 µM in [8], 20.9 µM in [9] and 11.2 µM in assay [10].
`CCOC(=O)/C=C/c1ccc(C(=O)OCC)[nH]1`: the GI50 in assay [1] is 7.85 µM; in assay [2], 6.88 µM; in [3] it was 7.14 µM; in assay [4], 5.29 µM; in [5], 3.3 µM; in assay [6], 5.32 µM. Moreover, the GI50 in assay [7] was 6.65 µM; in assay [8], 3.5 µM; in [9], 33.7 µM; in [10], 6.05 µM. In addition, the TGI in [1], in assay [2], in assay [3], in [4], in [5] and in assay [6] was greater than 100 µM each time. Further, the TGI in assay [7] was greater than 100 µM; in assay [8], 41.2 µM; in assay [9], greater than 100 µM; in [10] it was greater than 100 µM.
With `ClCCn1cnc2c(SCc3ccccc3)ncnc21`, the GI50 was 1.05 µM in [1]; 4.99 µM in assay [2]; 1.44 µM in assay [3]; 0.534 µM in [4]; 4.94 µM in assay [5]; 0.73 µM in assay [6]. Also, the GI50 was 1.49 µM in [7], 3.12 µM in [8], 10.9 µM in assay [9] and 0.924 µM in [10]. Moreover, the TGI in assay [1] was 19.7 µM; in assay [2] it was greater than 100 µM; in [3] it was greater than 100 µM; in assay [4] it was 18.6 µM; in assay [5], greater than 100 µM; in assay [6], 35.5 µM. The TGI in assay [7], in assay [8], in assay [9] and in assay [10] was greater than 100 µM in each case.
On to `CC[C@@]1(OC(=O)CCC(=O)O)C(=O)OCc2c1cc1n(c2=O)Cc2cc3ccccc3nc2-1`, for which the TGI came out at 0.394 µM in [1]; 0.424 µM in assay [2]; 0.181 µM in [3]; 0.596 µM in assay [4]; 0.791 µM in assay [5]; 3.87 µM in assay [6]. Besides, the TGI was greater than 60.9 µM in [7], 1.78 µM in assay [8], greater than 46.1 µM in assay [9] and 57.5 µM in [10].

For the origin of these results see PubChem BioAssay (NCI).
